Measured values from PubChem BioAssay (NCI).
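Briefly, cells in 96-well plates were exposed to five compound concentrations for 48 h, and endpoints were estimated by linear interpolation. TGI: total growth inhibition.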

Tests used:
Test in all cases: NCI-60 cell line screen, 48 h
[1] = test system: OVCAR-4 ovarian
[2] = test system: DMS 114 small cell lung
[3] = test system: NCI-H522 lung
[4] = test system: MALME-3M melanoma
[5] = test system: HT29 colon
[6] = test system: U251 CNS
[7] = test system: A549 NSCLC
[8] = test system: SNB-75 CNS
[9] = test system: DMS 273 small cell lung
[10] = test system: OVCAR-8 ovarian
[11] = test system: NCI-H460 lung
[12] = test system: OVCAR-3 ovarian
[13] = test system: A498 renal
[14] = test system: HCT-15 colon
[15] = test system: SN12C renal
[16] = test system: RXF 393 renal
[17] = test system: HCC-2998 colon
[18] = test system: K-562 leukemia
[19] = test system: NCI-H226 lung
[20] = test system: HL-60(TB) leukemia
[21] = test system: UACC-257 melanoma
[22] = test system: M19-MEL melanoma
[23] = test system: MOLT-4 leukemia
[24] = test system: 786-0 renal
[25] = test system: TK-10 renal
[26] = test system: EKVX NSCLC
[27] = test system: CCRF-CEM leukemia
[28] = test system: ACHN renal
[29] = test system: SK-MEL-5 melanoma
[30] = test system: SR leukemia
[31] = test system: COLO 205 colon
[32] = test system: CAKI-1 renal
[33] = test system: UACC-62 melanoma
[34] = test system: SF-539 CNS
[35] = test system: HOP-18 NSCLC
[36] = test system: SK-MEL-2 melanoma
[37] = test system: NCI-H23 lung
[38] = test system: XF 498 CNS
[39] = test system: HOP-62 NSCLC
[40] = test system: SF-295 CNS
[41] = test system: LXFL 529 NSCLC
[42] = test system: HCT-116 colon
[43] = test system: SF-268 CNS
[44] = test system: M14 melanoma
[45] = test system: RPMI-8226 leukemia
[46] = test system: SK-MEL-28 melanoma
[47] = test system: KM20L2 colon
[48] = test system: LOX IMVI melanoma
[49] = test system: SW-620 colon
[50] = test system: KM12 colon
[51] = test system: UO-31 renal
[52] = test system: OVCAR-5 ovarian
[53] = test system: SK-OV-3 ovarian
[54] = test system: HOP-92 NSCLC
[55] = test system: SNB-19 CNS
[56] = test system: IGROV1 ovarian
[57] = test system: DLD-1 colon
[58] = test system: RXF-631 renal
[59] = test system: SNB-78 CNS

O=C(NC12CC3CC(CC(C3)C1)C2)C(=O)c1c[nH]c2ccc([N+](=O)[O-])cc12
TGI [1]: 54.4 µM | TGI [2]: > 100 µM | TGI [3]: > 100 µM | TGI [4]: > 94.5 µM | TGI [5]: > 100 µM | TGI [6]: > 46.8 µM | TGI [7]: > 41.1 µM | TGI [8]: 52.8 µM | TGI [9]: 45 µM | TGI [10]: > 100 µM | TGI [11]: > 72.3 µM | TGI [12]: > 100 µM | TGI [13]: 98 µM | TGI [14]: > 100 µM | TGI [15]: > 100 µM | TGI [16]: > 94.6 µM | TGI [17]: > 100 µM | TGI [18]: > 100 µM | TGI [19]: 63.6 µM | TGI [20]: > 100 µM | TGI [21]: > 100 µM | TGI [22]: > 100 µM | TGI [23]: > 100 µM | TGI [24]: 45.9 µM | TGI [25]: > 100 µM | TGI [26]: > 100 µM | TGI [27]: > 100 µM | TGI [28]: > 100 µM | TGI [29]: > 100 µM | TGI [30]: > 100 µM | TGI [31]: > 100 µM | TGI [32]: > 100 µM | TGI [33]: > 77.1 µM | TGI [34]: > 100 µM | TGI [35]: > 90.9 µM | TGI [36]: > 100 µM | TGI [37]: > 100 µM | TGI [38]: 60.6 µM | TGI [39]: > 59.1 µM | TGI [40]: 37.9 µM | TGI [41]: > 100 µM | TGI [42]: > 100 µM | TGI [43]: 43.4 µM | TGI [44]: > 100 µM | TGI [45]: > 100 µM | TGI [46]: > 100 µM | TGI [47]: > 100 µM | TGI [48]: > 52 µM | TGI [49]: > 100 µM | TGI [50]: > 100 µM | TGI [51]: > 100 µM | TGI [52]: > 100 µM | TGI [53]: > 100 µM | TGI [54]: > 90.5 µM | TGI [55]: > 30.3 µM | TGI [56]: > 100 µM

CC1=C(C(=O)Nc2ccc([N+](=O)[O-])cc2)C(c2ccccc2O)C(C(=O)Nc2ccc([N+](=O)[O-])cc2)=C(C)N1
TGI [1]: 73.8 µM | TGI [2]: 44.8 µM | TGI [3]: 35.9 µM | TGI [4]: 49.4 µM | TGI [5]: 57.8 µM | TGI [6]: 61.1 µM | TGI [7]: 90.4 µM | TGI [8]: 89 µM | TGI [9]: 47.1 µM | TGI [10]: > 100 µM | TGI [11]: 56.4 µM | TGI [12]: 51.4 µM | TGI [13]: 66.4 µM | TGI [15]: 55.5 µM | TGI [16]: 45.9 µM | TGI [17]: 27.2 µM | TGI [18]: 74.2 µM | TGI [19]: 46.9 µM | TGI [20]: 48.2 µM | TGI [21]: 51.1 µM | TGI [22]: 64.4 µM | TGI [23]: 52.8 µM | TGI [24]: 64.8 µM | TGI [25]: > 100 µM | TGI [26]: 84.9 µM | TGI [27]: 61.7 µM | TGI [57]: 57.8 µM | TGI [28]: 58 µM | TGI [29]: 31.8 µM | TGI [31]: 40.8 µM | TGI [32]: 62.1 µM | TGI [34]: 57.8 µM | TGI [58]: 36.6 µM | TGI [36]: 31.8 µM | TGI [37]: 66.7 µM | TGI [38]: 31.2 µM | TGI [39]: 31.9 µM | TGI [40]: 72.2 µM | TGI [41]: 48.7 µM | TGI [43]: 49 µM | TGI [44]: 45.1 µM | TGI [45]: 53.4 µM | TGI [46]: 61.5 µM | TGI [47]: 35.8 µM | TGI [48]: 34.5 µM | TGI [49]: 94.1 µM | TGI [50]: 55 µM | TGI [51]: 67.8 µM | TGI [52]: 55.8 µM | TGI [53]: 94.7 µM | TGI [54]: 40.1 µM | TGI [59]: 91.8 µM | TGI [55]: > 100 µM | TGI [56]: > 100 µM

O=c1nc(NC(c2ccccc2)(c2ccccc2)c2ccccc2)ccn1CCO
TGI [1]: > 100 µM | TGI [2]: > 100 µM | TGI [3]: > 100 µM | TGI [4]: > 100 µM | TGI [5]: > 100 µM | TGI [6]: > 100 µM | TGI [7]: > 100 µM | TGI [8]: > 100 µM | TGI [10]: > 100 µM | TGI [11]: > 100 µM | TGI [12]: > 100 µM | TGI [13]: > 100 µM | TGI [14]: > 100 µM | TGI [15]: > 100 µM | TGI [16]: > 100 µM | TGI [17]: > 100 µM | TGI [18]: > 100 µM | TGI [19]: > 100 µM | TGI [20]: > 100 µM | TGI [21]: > 100 µM | TGI [23]: > 100 µM | TGI [24]: > 100 µM | TGI [25]: > 100 µM | TGI [26]: > 100 µM | TGI [57]: > 100 µM | TGI [28]: > 100 µM | TGI [30]: > 100 µM | TGI [31]: > 100 µM | TGI [34]: > 100 µM | TGI [35]: > 100 µM | TGI [36]: > 100 µM | TGI [37]: > 100 µM | TGI [39]: > 100 µM | TGI [40]: > 100 µM | TGI [41]: > 100 µM | TGI [42]: > 100 µM | TGI [43]: > 100 µM | TGI [45]: > 100 µM | TGI [46]: > 100 µM | TGI [47]: > 100 µM | TGI [48]: > 100 µM | TGI [49]: > 100 µM | TGI [50]: > 100 µM | TGI [51]: > 100 µM | TGI [52]: > 100 µM | TGI [54]: > 100 µM | TGI [59]: > 100 µM | TGI [55]: > 100 µM | TGI [56]: > 100 µM
